Results reported in patent US20150031102A1, “METHODS AND COMPOSITIONS FOR ENHANCED PRODUCTION OF BUTANOL BY CLOSTRIDIA” (Butrolix LLC, priority 2012, published 2015).

System: Clostridium acetobutylicum strain ATCC 824
Test: Sequential batch transfer in 24-well culture plates (butanol, residual glucose, butanol yield and productivity)
Format: cell-based
Settings: after 96 hours of culture; for Residual glucose concentration: initial glucose 60 g/L; for Butanol: Experiment 1
Protocol: Each well contained 1.5 mL of growth medium. Peptide was added to each well at the indicated concentration (0, 25, 50, and 100 nM). Every 24 hours fresh medium and peptide treatment were added to a new column of wells then 1.5 μL of the previous day culture was transferred to the new well. Wells were harvested for glucose and butanol analysis after 96 hours of growth. Transfers 1, 4, 7, 10, 13, 16, […].
Briefly, Clostridium spores were germinated in a suitable growth medium for 18-24 hours then […] was transferred to 1.5 mL of fresh medium in each of four wells on a 24-well culture plate. Three of the wells had been treated with 25 nM, 50 nM and 100 nM of peptide, respectively while the fourth well was untreated. Thereafter, every 24 hours […] of each subculture was transferred to 1.5 mL of fresh medium that contained the same peptide treatment or no treatment. Transfers of successive subcultures were done for 24 days, and each subculture was grown for 96 hours before being harvested. Culture supernatants were recovered following centrifugation and were analyzed for butanol and residual glucose concentrations. Determination of optimum peptide treatment levels was based on a graphical comparison of the concentration of butanol in each of the four culture wells for sequential transfers 1, 4, 7, 10, 13, 16, 19, 22 and 24.
Clostridium acetobutylicum strain ATCC 824 was used in all experiments and the growth medium used for sequential batch transfer, time course, and continuous culture experiments contained yeast extract, casamino acids, L-cysteine, L-asparagine, phosphate buffer, trace minerals, and 6% glucose. What are believed to be quorum-sensing peptides that were used in the experiments were chemically synthesized peptides SEQ ID NO: 143 (amino acid sequence: SYPGWSW) and SEQ ID NO: 144 (amino acid sequence: ILILISG). Routine growth of the bacteria as well as the sequential batch and time course experiments were conducted in a Form a Scientific Model 1029 anaerobic gas chamber at 32° C. Continuous cultures were performed at 32° C. using duplicate New Brunswick Scientific BioFlo 3000 apparati with a dilution rate of 0.01 volume per hour, 75 rpm agitation, and nitrogen gas sparging. Optical density of culture samples was measured at 600 nm in a Beckman DU 600 series spectrophotometer and glucose was analyzed using a YSI Model 2700 Select Biochemistry Analyzer with internal glucose calibration. Butanol concentrations were determined by measuring experimental and standard samples using a Varian Saturn 3 Gas Chromatograph/Mass Spectrometer and calculating butanol concentrations using standard curves.
(§1) Sequential batch transfer experiments were carried out in 24-well culture plates that contained 1.5 mL of medium per well. Peptide was added to each well at the indicated concentrations of 0 nM (control), 25 nM, 50 nM, or 100 nM. Every 24 hours, fresh medium and peptide treatments were added to a new column of wells. Then, 1.5 uL of the previous day culture was transferred to the new well. Wells were harvested for glucose and butanol analysis after 96 hours of growth; transfers 1, 4, 7, 10, 13, 16, 19, 22, and 24 were analyzed. Two representative experiments are shown in Tables 30 and 31 and FIGS. 14 and 15.
as §1, with “32” for “30”, “33” for “31”, “16” for “14”, “17.” for “15.”

[1] = 25 nM peptide, transfer 1, Expt. 2 (repeat)
[2] = 25 nM peptide, transfer 4, Expt. 2 (repeat)
[3] = 25 nM peptide, transfer 7, Expt. 2 (repeat)
[4] = 25 nM peptide, transfer 10, Expt. 2 (repeat)
[5] = 25 nM peptide, transfer 13, Expt. 2 (repeat)
[6] = 25 nM peptide, transfer 16, Expt. 2 (repeat)
[7] = 25 nM peptide, transfer 19, Expt. 2 (repeat)
[8] = 25 nM peptide, transfer 22, Expt. 2 (repeat)
[9] = 25 nM peptide, transfer 24, Expt. 2 (repeat)
[10] = 25 nM, transfer 1, first experiment
[11] = 25 nM, transfer 4, first experiment
[12] = 25 nM, transfer 7, first experiment
[13] = 25 nM, transfer 10, first experiment
[14] = 25 nM, transfer 13, first experiment
[15] = 25 nM, transfer 16, first experiment
[16] = 25 nM, transfer 19, first experiment
[17] = 25 nM, transfer 22, first experiment
[18] = 25 nM, transfer 24, first experiment
[19] = 50 nM peptide, transfer 1, Expt. 2 (repeat)
[20] = 50 nM peptide, transfer 4, Expt. 2 (repeat)
[21] = 50 nM peptide, transfer 7, Expt. 2 (repeat)
[22] = 50 nM peptide, transfer 10, Expt. 2 (repeat)
[23] = 50 nM peptide, transfer 13, Expt. 2 (repeat)
[24] = 50 nM peptide, transfer 16, Expt. 2 (repeat)
[25] = 50 nM peptide, transfer 19, Expt. 2 (repeat)
[26] = 50 nM peptide, transfer 22, Expt. 2 (repeat)
[27] = 50 nM peptide, transfer 24, Expt. 2 (repeat)
[28] = 50 nM, transfer 1, first experiment
[29] = 50 nM, transfer 4, first experiment
[30] = 50 nM, transfer 7, first experiment

Work on SYPGWSW [peptide SEQ ID NO: 143] yielded a Butanol concentration [1] of 0.75 g/L, a Butanol productivity [1] of 0.01 g butanol/L-h and a Butanol yield [1] of 0.01 g butanol/g/glucose. For the same substance, the Residual glucose concentration [1] was 49.0 g/L, the Butanol concentration [2] was 1.40 g/L and the Butanol productivity [2] was 0.01 g butanol/L-h. For the same substance, the Butanol yield [2] was 0.02 g butanol/g/glucose, the Residual glucose concentration [2] was 43.5 g/L and the Butanol concentration [3] was 1.83 g/L. For the same substance, the Butanol productivity [3] was 0.02 g butanol/L-h, the Butanol yield [3] was 0.03 g butanol/g/glucose and the Residual glucose concentration [3] was 48.9 g/L. For the same substance, the Butanol concentration [4] was 2.93 g/L, the Butanol productivity [4] was 0.03 g butanol/L-h and the Butanol yield [4] was 0.05 g butanol/g/glucose. For the same substance, the Residual glucose concentration [4] was 43.9 g/L, the Butanol concentration [5] was 2.89 g/L and the Butanol productivity [5] was 0.03 g butanol/L-h. It also gave a Butanol yield [5] of 0.05 g butanol/g/glucose, a Residual glucose concentration [5] of 44.7 g/L and a Butanol concentration [6] of 6.32 g/L. The Butanol productivity [6] was 0.07 g butanol/L-h, the Butanol yield [6] was 0.11 g butanol/g/glucose and the Residual glucose concentration [6] was 39.1 g/L. It also gave a Butanol concentration [7] of 2.65 g/L, a Butanol productivity [7] of 0.03 g butanol/L-h and a Butanol yield [7] of 0.05 g butanol/g/glucose. The Residual glucose concentration [7] was 44.1 g/L, the Butanol concentration [8] was 6.86 g/L and the Butanol productivity [8] was 0.07 g butanol/L-h. For the same substance, the Butanol yield [8] was 0.12 g butanol/g/glucose, the Residual glucose concentration [8] was 0.1 g/L and the Butanol concentration [9] was 5.33 g/L. It also gave a Butanol productivity [9] of 0.06 g butanol/L-h, a Butanol yield [9] of 0.09 g butanol/g/glucose and a Residual glucose concentration [9] of 16.0 g/L. For the same substance, the Butanol (25 nM, transfer 1) was 1.21 g/L, the Butanol productivity [10] was 0.01 g butanol/L-h and the Butanol yield [10] was 0.02 g butanol/g/glucose. The Residual glucose concentration [10] was 45.3 g/L, the Butanol (25 nM, transfer 4) was 11.87 g/L and the Butanol productivity [11] was 0.12 g butanol/L-h. For the same substance, the Butanol yield [11] was 0.20 g butanol/g/glucose, the Residual glucose concentration [11] was 0.1 g/L and the Butanol (25 nM, transfer 7) was 9.09 g/L. The Butanol productivity [12] was 0.09 g butanol/L-h, the Butanol yield [12] was 0.15 g butanol/g/glucose and the Residual glucose concentration [12] was 0.1 g/L. It also gave a Butanol (25 nM, transfer 10) of 12.83 g/L, a Butanol productivity [13] of 0.13 g butanol/L-h and a Butanol yield [13] of 0.22 g butanol/g/glucose. It also gave a Residual glucose concentration [13] of 0.1 g/L, a Butanol (25 nM, transfer 13) of 9.97 g/L and a Butanol productivity [14] of 0.10 g butanol/L-h. For the same substance, the Butanol yield [14] was 0.17 g butanol/g/glucose, the Residual glucose concentration [14] was 0.1 g/L and the Butanol (25 nM, transfer 16) was 11.66 g/L. The Butanol productivity [15] was 0.12 g butanol/L-h, the Butanol yield [15] was 0.20 g butanol/g/glucose and the Residual glucose concentration [15] was 0.1 g/L. The Butanol (25 nM, transfer 19) was 4.37 g/L, the Butanol productivity [16] was 0.05 g butanol/L-h and the Butanol yield [16] was 0.07 g butanol/g/glucose. For the same substance, the Residual glucose concentration [16] was 48.1 g/L, the Butanol (25 nM, transfer 22) was 7.12 g/L and the Butanol productivity [17] was 0.07 g butanol/L-h. It also gave a Butanol yield [17] of 0.12 g butanol/g/glucose, a Residual glucose concentration [17] of 45.7 g/L and a Butanol (25 nM, transfer 24) of 5.06 g/L. It also gave a Butanol productivity [18] of 0.05 g butanol/L-h, a Butanol yield [18] of 0.08 g butanol/g/glucose and a Residual glucose concentration [18] of 48.5 g/L. For the same substance, the Butanol concentration [19] was 0.72 g/L, the Butanol productivity [19] was 0.01 g butanol/L-h and the Butanol yield [19] was 0.01 g butanol/g/glucose. The Residual glucose concentration [19] was 48.9 g/L, the Butanol concentration [20] was 1.41 g/L and the Butanol productivity [20] was 0.01 g butanol/L-h. The Butanol yield [20] was 0.02 g butanol/g/glucose, the Residual glucose concentration [20] was 43.2 g/L and the Butanol concentration [21] was 3.09 g/L. It also gave a Butanol productivity [21] of 0.03 g butanol/L-h, a Butanol yield [21] of 0.05 g butanol/g/glucose and a Residual glucose concentration [21] of 41.3 g/L. For the same substance, the Butanol concentration [22] was 7.69 g/L, the Butanol productivity [22] was 0.08 g butanol/L-h and the Butanol yield [22] was 0.13 g butanol/g/glucose. It also gave a Residual glucose concentration [22] of 0.5 g/L, a Butanol concentration [23] of 8.72 g/L and a Butanol productivity [23] of 0.09 g butanol/L-h. It also gave a Butanol yield [23] of 0.15 g butanol/g/glucose, a Residual glucose concentration [23] of 0.1 g/L and a Butanol concentration [24] of 10.70 g/L. For the same substance, the Butanol productivity [24] was 0.11 g butanol/L-h, the Butanol yield [24] was 0.18 g butanol/g/glucose and the Residual glucose concentration [24] was 0.1 g/L. The Butanol concentration [25] was 5.75 g/L, the Butanol productivity [25] was 0.06 g butanol/L-h and the Butanol yield [25] was 0.10 g butanol/g/glucose. For the same substance, the Residual glucose concentration [25] was 0.1 g/L, the Butanol concentration [26] was 4.54 g/L and the Butanol productivity [26] was 0.05 g butanol/L-h. It also gave a Butanol yield [26] of 0.08 g butanol/g/glucose, a Residual glucose concentration [26] of 0.1 g/L and a Butanol concentration [27] of 4.78 g/L. For the same substance, the Butanol productivity [27] was 0.05 g butanol/L-h, the Butanol yield [27] was 0.08 g butanol/g/glucose and the Residual glucose concentration [27] was 0.1 g/L. The Butanol (50 nM, transfer 1) was 1.12 g/L, the Butanol productivity [28] was 0.01 g butanol/L-h and the Butanol yield [28] was 0.02 g butanol/g/glucose. For the same substance, the Residual glucose concentration [28] was 45.5 g/L, the Butanol (50 nM, transfer 4) was 11.53 g/L and the Butanol productivity [29] was 0.12 g butanol/L-h. The Butanol yield [29] was 0.19 g butanol/g/glucose, the Residual glucose concentration [29] was 0.1 g/L and the Butanol (50 nM, transfer 7) was 9.36 g/L. The Butanol productivity [30] was 0.10 g butanol/L-h, the Butanol yield [30] was 0.16 g butanol/g/glucose and the Residual glucose concentration [30] was 0.1 g/L. For the same substance, the Butanol (50 nM, transfer 10) was 13.66 g/L.
